Biological target: T1, p38 (Homo sapiens, UniProt Q16539)
T1 construct: made in house
Assay: Protein Kinase Assay (33P incorporation from γ-[33P]ATP into GST-ATF-2 substrate)
Format: biochemical
Details: compound at 0.5 μM (noted beside the value in Table 1)
Method: Human non-activated p38 kinase (MW=43 kDa) was purified according to the protocol described herein. Chemicals were purchased from Calbiochem. Fluorescence characterizations were conducted using a Cary Eclipse (Varian Analytical Instruments, Walnut Creek, Calif.). Research-grade CM5 sensor chips and coupling reagents (N-ethyl-N′-dimethylaminopropylcarbodiimide (EDC) N-hydroxysuccinimide (NHS), and 1 M ethanolamine HCl, pH 8.5) were purchased from Biacore AB (Uppsala, Sweden). The biosensor analyses were conducted using a Biacore 3000 SPR instrument. The kinetic analyses were carried on a Molecular Devices spectrophotometer (Molecular Devices Corporation, CA, USA).
Protein Kinase Assay. The protein kinase activity of p38 was determined by measuring the incorporation of ^33P from γ-[^33P]ATP into the GST-ATF-2 substrate, amino acids 19-96 (Upstate, NY USA). […] Compounds were preincubated with 10 nM p38 for 20 min at 30° C.; the reactions were initiated by the addition of GST-ATF2 and ATP and incubated for 70 min at 30° C. before being stopped by the addition of 10 μL of 600 mM phosphoric acid. The phosphorylated substrate was captured on phosphocellulose 96-well plate (Millipore MAPHNOB 10), washed with 100 mM phosphoric acid, and counted in a BeckmenCoulter LS6500 liquid scintillation counter.

T1 sequence (Q16539 whole entry): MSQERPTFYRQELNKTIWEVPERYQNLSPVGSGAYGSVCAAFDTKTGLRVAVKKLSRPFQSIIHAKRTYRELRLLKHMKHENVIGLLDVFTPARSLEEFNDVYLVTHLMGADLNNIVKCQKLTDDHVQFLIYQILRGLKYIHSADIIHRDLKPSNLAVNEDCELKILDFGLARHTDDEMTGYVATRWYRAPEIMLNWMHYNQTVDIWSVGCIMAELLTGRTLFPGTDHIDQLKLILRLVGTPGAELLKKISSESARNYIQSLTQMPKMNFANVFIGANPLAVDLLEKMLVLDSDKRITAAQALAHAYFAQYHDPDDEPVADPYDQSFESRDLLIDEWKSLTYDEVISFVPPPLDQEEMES

SMILES | inhibition at 0.5 µM [%]
CC(C)(C)c1cc(NC(=O)Nc2ccc3ccccc3c2)c(N2CCS(=O)(=O)CC2)s1 [Example 27, 1-[5-tert-butyl-2-(1,1-dioxo-1λ^6-thiomorpholin-4-yl)thiophen-3-yl]-3-naphthalen-2-ylurea] | 51 to 76

Same assay, conditions: compound at 3 μM (noted beside the value in Table 1); read-out: Protein Kinase (% Inhibition)

SMILES | inhibition at 3 µM [%]
CC(C)(C)c1cc(C(=O)N2CCNS(=O)(=O)CC2)c(NC(=O)Nc2cccc3ccccc23)s1 [Example 37, 1-[5-tert-butyl-3-(1,1-dioxo-1λ^6-[1,2,5]thiadiazepane-5-carbonyl)thiophen-2-yl]-3-naphthalen-1-ylurea] | 51 to 75
CC(C)(C)c1cc(C(=O)N2CCNS(=O)(=O)CC2)c(NC(=O)Nc2ccc3ccccc3c2)s1 [Example 38, 1-[5-tert-butyl-3-(1,1-dioxo-1λ^6-[1,2,5]thiadiazepane-5-carbonyl)thiophen-2-yl]-3-naphthalen-2-ylurea] | 76 to 100
CC(C)(C)c1cc(C(=O)N2CCNS(=O)(=O)CC2)c(NC(=O)Nc2ccc(Cl)cc2)s1 [Example 39, 1-[5-tert-butyl-3-(1,1-dioxo-1λ^6-[1,2,5]thiadiazepane-5-carbonyl)thiophen-2-yl]-3-(4-chlorophenyl)urea] | 76 to 100
CC(C)(C)c1cc(C(=O)N2CC[S@SP2](=O)(=O)CC2)c(NC(=O)Nc2ccc(Br)c3ccccc23)s1 [Example 40, 1-(4-Bromonaphthalen-1-yl)-3-[5-tert-butyl-3-(1,1-dioxo-1λ^6-thiomorpholine-4-carbonyl)thiophen-2-yl]urea] | 76 to 100
CC(C)(C)c1cc(C(=O)N2CCS(=O)(=O)CC2)c(NC(=O)Nc2ccc(Cl)c3ccccc23)s1 [Example 41, 1-[5-tert-butyl-3-(1,1-dioxo-1λ^6-thiomorpholine-4-carbonyl)thiophen-2-yl]-3-(4-chloronaphthalen-1-yl)urea] | 76 to 100
CC(C)(C)c1cc(C(=O)N2CCS(=O)(=O)CC2)c(NC(=O)Nc2cccc3nc[nH]c23)s1 [Example 42, 1-(3H-Benzimidazol-4-yl)-3-[5-tert-butyl-3-(1,1-dioxo-1λ^6-thiomorpholine-4-carbonyl)thiophen-2-yl]urea] | 76 to 100
CC(C)(C)c1cc(C(=O)N2CCS(=O)(=O)CC2)c(NC(=O)Nc2ccc(C#N)c3ccccc23)s1 [Example 43, 1-[5-tert-butyl-3-(1,1-dioxo-1λ^6-thiomorpholine-4-carbonyl)thiophen-2-yl]-3-(4-cyanonaphthalen-1-yl)urea] | 76 to 100

Same assay, conditions: compound at 3 μM; read-out: Protein Kinase (% Inhibition at 3 μM)

SMILES | inhibition at 3 µM [%]
CC(C)(C)c1cc(C(=O)NCCS(C)(=O)=O)c(NC(=O)Nc2cccc3ccccc23)s1 [Example 45, 1-(3-(2-(Methylsulfonyl)ethylcarbamoyl)-5-tert-butylthiophen-2-yl)-3-(naphthalen-1-yl)urea] | 76 to 100
CC(C)(C)c1cc(C(=O)N2CCNC(=O)CC2)c(NC(=O)Nc2ccc(Cl)cc2)s1 [Example 46, 1-[5-tert-butyl-3-(5-oxo-[1,4]diazepane-1-carbonyl)thiophen-2-yl]-3-(4-chloro-phenyl)urea] | 76 to 100
CC(C)(C)c1cc(C(=O)N2CCNC(=O)C2)c(NC(=O)Nc2ccc(Cl)cc2)s1 [Example 47, 1-[5-tert-butyl-3-(3-oxopiperazine-1-carbonyl)thiophen-2-yl]-3-(4-chloro-phenyl)urea] | 76 to 100
CC(C)(C)c1cc(C(=O)N2CCS(=O)(=O)CC2)c(NC(=O)Nc2c[nH]c3ccccc23)s1 [Example 49, 1-[5-tert-butyl-3-(1,1-dioxo-1λ^6-thiomorpholine-4-carbonyl)thiophen-2-yl]-3-(1H-indol-3-yl)urea] | 51 to 75
CC(C)(C)c1cc(NC(=O)Nc2cccc3ccccc23)c(C(=O)N2CCNC(=O)CC2)s1 [Example 50, 1-[5-tert-butyl-2-(5-oxo-[1,4]diazepane-1-carbonyl)thiophen-3-yl]-3-naphthalen-1-ylurea] | 76 to 100

Same assay, conditions: compound at 10 μM

SMILES | inhibition at 10 µM [%]
CC(C)(C)c1cc(C(=O)N2CCOCC2)c(NC(=O)Nc2cccc3ccccc23)s1 [Example 16, 1-[5-tert-butyl-3-(morpholine-4-carbonyl)thiophen-2-yl]-3-naphthalen-1-yl-urea] | 26 to 50
CC(C)(C)c1cc(NC(=O)Nc2ccc(Cl)cc2)n(C(=O)N2CCS(=O)(=O)CC2)n1 [Example 17, 1-[5-tert-butyl-2-(1,1-dioxo-1λ^6-thiomorpholine-4-carbonyl)-2H-pyrazol-3-yl]-3-(4-chlorophenyl)urea] | 76 to 100
CC(C)(C)c1cc(C(=O)N2CCSCC2)c(NC(=O)Nc2cccc3ccccc23)s1 [Example 18, 1-[5-tert-butyl-3-(thiomorpholine-4-carbonyl)thiophen-2-yl]-3-naphthalen-1-ylurea] | 51 to 75
CC(C)(C)c1cc(CN2CCOCC2)c(NC(=O)Nc2cccc3ccccc23)s1 [Example 19, 1-(5-tert-butyl-3-morpholin-4-ylmethylthiophen-2-yl)-3-naphthalen-1-ylurea] | 51 to 75
CC(C)(C)c1cc(CN2CCSCC2)c(NC(=O)Nc2cccc3ccccc23)s1 [Example 20, 1-(5-tert-butyl-3-thiomorpholin-4-ylmethylthiophen-2-yl)-3-naphthalen-1-yl-urea] | 0 to 25
CC(C)(C)c1cc(NC(=O)Nc2cccc3ccccc23)n(C(=O)N2CCS(=O)(=O)CC2)n1 [Example 21, 1-[5-tert-butyl-2-(1,1-dioxo-1λ^6-thiomorpholine-4-carbonyl)-2H-pyrazol-3-yl]-3-naphthalen-1-ylurea] | 76 to 100
CC(C)(C)c1cc(C(=O)N2CC[S+]([O-])CC2)c(NC(=O)Nc2cccc3ccccc23)s1 [Example 22, 1-[5-tert-butyl-3-(1-oxo-1λ^4-thiomorpholine-4-carbonyl)thiophen-2-yl]-3-naphthalen-1-ylurea] | 26 to 50
CC(C)(C)c1cc(NC(=O)Nc2ccc3ccccc3c2)n(C(=O)N2CCS(=O)(=O)CC2)n1 [Example 23, 1-[5-tert-butyl-2-(1,1-dioxo-1λ^6-thiomorpholine-4-carbonyl)-2H-pyrazol-3-yl]-3-naphthalen-2-ylurea] | 26 to 50
CC(C)(C)c1nc(C(=O)N2CCS(=O)(=O)CC2)c(NC(=O)Nc2cccc3ccccc23)s1 [Example 25, 1-[2-tert-butyl-4-(1,1-dioxo-1λ^6-thiomorpholine-4-carbonyl)thiazol-5-yl]-3-naphthalen-1-ylurea] | 76 to 100
CC(C)(C)c1nc(C(=O)N2CCS(=O)(=O)CC2)c(NC(=O)Nc2ccc3ccccc3c2)s1 [Example 26, 1-[2-tert-butyl-4-(1,1-dioxo-1λ^6-thiomorpholine-4-carbonyl)thiazol-5-yl]-3-naphthalen-2-ylurea] | 51 to 75
CC(C)(C)c1cc(C(=O)N2CCS(=O)(=O)CC2)c(NC(=O)Nc2ccc(Oc3ccccc3)cc2)s1 [Example 28, 1-[5-tert-butyl-3-(1,1-dioxo-1λ^6-thiomorpholine-4-carbonyl)thiophen-2-yl]-3-(4-phenoxyphenyl)urea] | 0 to 25
CC(C)(C)c1cc(C(=O)N2CCS(=O)(=O)CC2)c(NC(=O)Nc2cccc3cccnc23)s1 [Example 29, 1-[5-tert-butyl-3-(1,1-dioxo-1λ^6-thiomorpholine-4-carbonyl)thiophen-2-yl]-3-quinolin-8-ylurea] | 0 to 25
CC(C)(C)c1cc(C(=O)N2CCS(=O)(=O)CC2)c(NC(=O)NC2CCc3ccccc32)s1 (centres unmarked) [Example 30, 1-[5-tert-butyl-3-(1,1-dioxo-1λ^6-thiomorpholine-4-carbonyl)thiophen-2-yl]-3-indan-1-ylurea] | 51 to 75
CC(C)(C)c1cc(C(=O)N2CCS(=O)(=O)CC2)c(NC(=O)Nc2ccnc3ccccc23)s1 [Example 31, 1-[5-tert-butyl-3-(1,1-dioxo-1λ^6-thiomorpholine-4-carbonyl)thiophen-2-yl]-3-quinolin-4-ylurea] | 51 to 75
CC(C)(C)c1cc(C(=O)N2CCS(=O)(=O)CC2)c(NC(=O)Nc2cccc3cn[nH]c23)s1 [Example 32, 1-[5-tert-butyl-3-(1,1-dioxo-1λ^6-thiomorpholine-4-carbonyl)thiophen-2-yl]-3-(1H-indazol-7-yl)urea] | 26 to 50
CC(C)(C)c1cc(C(=O)N2CCS(=O)(=O)CC2)c(NC(=O)Nc2ccc3c(c2)NC(=O)CC3)s1 [Example 33, 1-[5-tert-butyl-3-(1,1-dioxo-1λ^6-thiomorpholine-4-carbonyl)thiophen-2-yl]-3-(2-oxo-1,2,3,4-tetrahydroquinolin-7-yl)urea] | 0 to 25
CC(C)(C)c1cc(C(=O)N2CCS(=O)(=O)CC2)c(NC(=O)Nc2ccc(O)c3ccccc23)s1 [Example 34, 1-[5-tert-butyl-3-(1,1-dioxo-1λ^6-thiomorpholine-4-carbonyl)thiophen-2-yl]-3-(4-hydroxynaphthalen-1-yl)urea] | 76 to 100
CC(C)(C)c1cc(C(=O)N2CCNC(=O)C2)c(NC(=O)Nc2cccc3ccccc23)s1 [Example 35, 1-[5-tert-butyl-3-(3-oxopiperazine-1-carbonyl)thiophen-2-yl]-3-naphthalen-1-ylurea] | 51 to 75
CC(C)(C)c1cc(C(=O)N2CCNC(=O)CC2)c(NC(=O)Nc2ccc3ccccc3c2)s1 [Example 44, 1-[5-tert-butyl-3-(5-oxo[1,4]diazepane-1-carbonyl)thiophen-2-yl]-3-naphthalen-2-ylurea] | 76 to 100

Reference: patent US7741479B2, “Urea inhibitors of MAP kinases” (Locus Pharmaceuticals, Inc., priority 2004, dated 2010)
